Measured values taken from patent US20230219913A1, “Sulfamoylamide Derivatives” (Hoffmann-La Roche Inc., priority 2020, published 2023).

Target: T1, human cGAS (residues 161-522) (Homo sapiens, UniProt Q8N884)
T1 construct: Recombinantly expressed purified human cGAS (residues 161-522) was used at 25 nM; made in house
Assay: Malachite Green assay to measure cGAS activity (coupled enzymatic assay, phosphate detection)
Type: biochemical
Settings: recombinant human cGAS 25 nM; 80 μM ATP, 80 μM GTP, 100 nM ISD; 4 hour at RT
Experimental: Malachite Green Assay to Measure cGAS Activity
Compounds were tested for cGAS inhibition in a coupled enzymatic assay based on Phosphate detection by Malachite Green. Final assay conditions were 20 mM TRIS pH 7.5 (Applichem), 5 mM MgCl2 (Sigma) and 0.01% BSA (Sigma) supplemented with 80 μM ATP (Sigma), 80 μM GTP (Sigma) and 100 nM Interferon Stimulating DNA (ISD) (Microsynth). Recombinantly expressed purified human cGAS (residues 161-522) was used at 25 nM.
All compounds were prepared as 10 mM stock solutions in DMSO and a 16 pt dilution series in DMSO with a dilution factor of 2.5 was prepared. 1 μL of DMSO dilution series was transferred to 32.3 μL reaction buffer, mixed by pipetting up/down, spun for 1 minute at 3000 rpm and was visually inspected for precipitation. 5 μL of 3-fold enzyme stock solution were transferred to an empty 384-well Black/Clear Flat Bottom Polystyrene NBS (Corning) rows 3-24. Rows 1-2 were filled with assay buffer. Plates were spun 10 seconds at 1000 rpm (164×g). 5 μL of compound intermediate dilution was added and mixed by pipetting up/down to rows 3-24. Rows 1-2 were filled with 3.1% DMSO assay buffer. Plates were spun 10 seconds at 1000 rpm (164×g). 5 μL 3-fold Nucleotide/DNA mix was added to all wells to start the reaction. Plates were spun 10 seconds at 1000 rpm (164×g) and incubated for 4 hour at room temperature (RT) in the dark. 5 μL 4 U/mL PPase (Sigma) were added to all wells. Plates spun 10 seconds at 1000 rpm (164×g). 10 μL BioMol green Solution (Enzo Life Sciences) was added to all wells. Plates spun 10 seconds at 1000 rpm (164×g) and incubated 30 minutes at RT in the dark. Absorbance data was collected 620 nm on an EnVision Multilable Reader (Perkin Elmer) and the following measurement settings were used: excitation filter photometric was 620 nm; excitation from the top; measurement height was 1 mm; number of flashes was 30; number of flashes integrated was 1.
All plates are checked for abnormalities and outliers in the Blank Control (no protein, row 1) and the Neutral Control (no compound, row 2) are excluded using the 3*SD rule. Data was normalized to 0 and 100% by Blank and Neutral Control and each curve was fitted and judged using the 4 parameter logistic equation to determine the IC50 for cGAS inhibition.
Table 1 provides IC50 values (04) for cGAS inhibition obtained for particular examples of the present invention as measured by the above-described assay.

T1 sequence (Q8N884 161-522): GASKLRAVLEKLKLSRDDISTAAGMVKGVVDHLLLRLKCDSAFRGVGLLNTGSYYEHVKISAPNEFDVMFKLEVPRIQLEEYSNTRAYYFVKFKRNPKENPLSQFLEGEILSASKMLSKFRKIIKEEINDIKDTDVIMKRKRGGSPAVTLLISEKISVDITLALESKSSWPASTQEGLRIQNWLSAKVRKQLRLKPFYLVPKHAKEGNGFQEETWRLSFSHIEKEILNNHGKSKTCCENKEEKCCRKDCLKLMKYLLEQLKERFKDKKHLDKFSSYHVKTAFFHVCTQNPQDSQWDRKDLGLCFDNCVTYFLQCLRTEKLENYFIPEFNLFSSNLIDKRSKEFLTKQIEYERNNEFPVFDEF

Row | Structure (SMILES) | IC50 [µM]
1 | Cc1ccc(-c2ccc3c(c2)C(=O)N(CCN2CCOCC2)S(=O)(=O)N3)c(Cl)c1 [Example 5, 6-(2-Chloro-4-methylphenyl)-3-(2-morpholinoethyl)-1H-benzo[c][1,2,6]thiadiazin-4(3H)-one 2,2-dioxide] | 17.6
2 | Cc1ccc(-c2ccc3c(c2)C(=O)NS(=O)(=O)N3Cc2ccncc2)c(Cl)c1 [Example 3, 6-(2-Chloro-4-methylphenyl)-1-(pyridin-4-ylmethyl)-1H-benzo[c][1,2,6]thiadiazin-4(3H)-one 2,2-dioxide] | 14.2
3 | Cc1ccc(-c2ccc3c(c2)C(=O)NS(=O)(=O)N3Cc2ccccc2)c(Cl)c1 [Example 6, 1-Benzyl-6-(2-chloro-4-methylphenyl)-1H-benzo[c][1,2,6]thiadiazin-4(3H)-one 2,2-dioxide] | 20.1
4 | Cc1ccc(-c2ccc3c(c2)C(=O)NS(=O)(=O)N3)c(Cl)c1 [Example 1, 6-(2-Chloro-4-methylphenyl)-1H-benzo[c][1,2,6]thiadiazin-4(3H)-one 2,2-dioxide] | 2.94
5 | Cc1ccc(-c2ccc3c(c2)C(=O)NS(=O)(=O)N3CCN2CCOCC2)c(Cl)c1 [Example 2, 6-(2-Chloro-4-methylphenyl)-1-(2-morpholinoethyl)-1H-benzo[c][1,2,6]thiadiazin-4(3H)-one 2,2-dioxide] | 9.6
6 | Cc1ccc(-c2ccc3c(c2)C(=O)NS(=O)(=O)N3CCc2ccccc2)c(Cl)c1 [Example 4, 6-(2-Chloro-4-methylphenyl)-1-phenethyl-1H-benzo[c][1,2,6]thiadiazin-4(3H)-one 2,2-dioxide] | 17.2
